Measurements published in patent US12559529B2, “NPY2 receptor agonists” (Boehringer Ingelheim International GmbH, priority 2019, dated 2026).

What was measured:
[1] = target: T1, Human Neuropeptide Y2 Receptor (Homo sapiens, UniProt P49146); test: Radioligand binding competition assay (RLB); details: Table 2; read-out: hY2 RLB (nM) (Ex. 1)
T1 construct: purchased CHEMICON HTS066M
T1 sequence (P49146 1-381): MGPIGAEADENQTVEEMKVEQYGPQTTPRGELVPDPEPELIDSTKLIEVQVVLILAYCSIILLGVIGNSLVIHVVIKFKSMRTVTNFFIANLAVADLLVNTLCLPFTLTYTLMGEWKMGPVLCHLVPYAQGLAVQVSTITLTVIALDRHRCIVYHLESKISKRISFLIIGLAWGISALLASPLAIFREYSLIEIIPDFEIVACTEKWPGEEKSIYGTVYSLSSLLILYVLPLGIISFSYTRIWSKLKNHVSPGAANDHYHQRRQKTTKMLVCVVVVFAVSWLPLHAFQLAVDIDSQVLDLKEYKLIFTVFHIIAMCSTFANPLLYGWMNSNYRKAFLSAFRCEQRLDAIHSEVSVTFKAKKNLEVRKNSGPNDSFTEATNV
Summary of the method: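 Competition binding on human Y2 receptor membranes, 0.5 μg protein/well, in 50 mM HEPES, 5 mM MgCl2, 1 mM CaCl2, pH 7.4, 0.2% ovalbumin; peptides diluted from 1 mM DMSO stocks.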

[2] = Solubility determination; assay type: physicochemical
Experimental: The peptide was dissolved by shaking the filter unit horizontally at 600 rpm for 2 hours at room temperature. […] Both the control and sample were analysed with reversed phase chromatography. The area under the peak of the sample was compared to the control and the solubility was calculated based on that ratio. The pH was measured and recorded for each sample.

[3] = target: T2, human NPY2 receptor (Homo sapiens, UniProt P49146); test: HTRF cAMP Gi assay, hY2R
T2 sequence (P49146 1-381): T1 sequence (P49146 1-381)
Experimental: Briefly, the production of intracellular cAMP will generate a competition between unlabeled cAMP and exogenously added d2-cAMP for anti-cAMP antibodies conjugated to cryptate. CHO-K1 cells stably expressing the human NPY1, NPY2, NPY4 and NPY5 receptors were used with the cells brought to life from a frozen stock immediately before assay performance. 2000 cells per well were applied for all four NPY receptor subtype assays. A 384-well format was used applying a total volume of 20 μl using 5 μl cells, 2.5 μl peptide agonist, 2.5 μl forskolin and 5 μl of each of the fluorophores. […] Concentration-response evaluation of compounds was performed with 11 concentrations of agonist peptides (covering 3 decades). EC50 values were calculated by nonlinear regression using sigmoid concentration-response with variable slope.

Ki [1]: 1.69 nM
[final pH] of Sol pH 6 sample ([2]; pH 6): [6.0]
[final pH] of Sol pH 7 sample ([2]; pH 7): [6.7]
EC50 [3]: 0.375 nM
Compound: CC(C)CC(=O)N[C@@H](CCCNC(=N)N)C(=O)N1CCC[C@H]1C(=O)N[C@@H](CCC(=O)O)C(=O)N[C@@H](CCCCNC(=O)COCCOCCNC(=O)COCCOCCNC(=O)CC[C@H](NC(=O)CCCCCCCCCCCCCCCCC(=O)O)C(=O)O)C(=O)N1CCC[C@H]1C(=O)NCC(=O)N[C@@H](CCC(=O)O)C(=O)N[C@@H](CC(=O)O)C(=O)N[C@@H](C)C(=O)N[C@@H](CO)C(=O)N1CCC[C@H]1C(=O)N[C@@H](CCC(=O)O)C(=O)N[C@@H](CCC(=O)O)C(=O)N[C@@H](CC(C)C)C(=O)N[C@@H](CCC(N)=O)C(=O)N[C@@H](CCCNC(=N)N)C(=O)N[C@@H](Cc1ccc(O)cc1)C(=O)N[C@@H](Cc1ccc(O)cc1)C(=O)N[C@H](C(=O)N[C@@H](CO)C(=O)N[C@@H](CC(C)C)C(=O)N[C@@H](CCCNC(=N)N)C(=O)N[C@@H](C)C(=O)N[C@@H](Cc1ccc(O)cc1)C(=O)N[C@@H](Cc1ccc(O)cc1)C(=O)N[C@@H](CC(N)=O)C(=O)N[C@@H](Cc1c[nH]c2ccccc12)C(=O)N[C@@H](CC(C)C)C(=O)N[C@H](C(=O)N[C@@H](CCCNC(=N)N)C(=O)N[C@@H](CCC(N)=O)C(=O)N[C@@H](CCCNC(=N)N)C(=O)N[C@@H](Cc1ccc(O)cc1)C(N)=O)[C@@H](C)O)C(C)C [Ref. 3, reference compound]
